Earlier results on 1 molecule are cited in US8895055B2, “Telodendrimer nanodiscs without apolipoprotein” (The Regents of the University of California, priority 2011, dated 2014).

Consider `C[C@@H]1[C@H](O)[C@@H](C)/C=C/C=C/C=C/C=C/C=C/C=C/C=C/[C@H](O[C@@H]2O[C@H](C)[C@@H](O)[C@H](N)[C@@H]2O)C[C@@H]2O[C@](O)(C[C@@H](O)C[C@@H](O)[C@H](O)CC[C@@H](O)C[C@@H](O)CC(=O)O[C@H]1C)C[C@H](O)[C@H]2C(=O)O` [Amphotericin B], for which the solubility in water result is reported as “poorly soluble in water”.
